Experimental data reported in ChEMBL document CHEMBL1138128, “Phenolic P2/P3 core motif as thrombin inhibitors--design, synthesis, and X-ray co-crystal structure” (Bioorg Med Chem Lett, 2006).

Columns and labels:
Prothrombin = Prothrombin (Homo sapiens, UniProt P00734); experiment: Inhibitory activity against thrombin
Trypsin = Trypsin (Homo sapiens, UniProt P07477+P07478+P35030); experiment: Inhibitory activity against trypsin; assay type: protein assay

Row | Structure (SMILES) | IC50 (Prothrombin) [nM] | IC50 (Trypsin) [µM]
1 | Cc1ccc(NS(=O)(=O)c2ccccc2Cl)c(O)c1CC(=O)NCc1ccnc(N)c1.Cl | 3000 | > 44
2 | Cc1ccc(C)c(S(=O)(=O)Nc2ccc(C)c(CC(=O)NCc3ccc(C(=N)N)cc3)c2O)c1.Cl | 25 | 0.11
3 | Cc1ccc(NCNC(=O)c2ccccc2)c(O)c1CC(=O)NCc1ccc(C(=N)N)cc1.Cl | 2400 | 2.7
4 | Cc1ccc(NS(=O)(=O)c2cccc(Cl)c2C)c(O)c1CC(=O)NCc1ccc(N)nc1C.Cl | 190 | > 44
5 | Cc1ccc(NS(=O)(=O)c2cccc3ccccc23)c(O)c1CC(=O)NCc1ccc(C(=N)N)cc1.Cl |  | 1.1
6 | Cc1ccc(NS(=O)(=O)c2ccccc2)c(O)c1CC(=O)NCc1ccc(C(=N)N)cc1.Cl | 97 | 0.6
7 | Cc1ccnc(CNC(=O)Cc2c(C)ccc(NS(=O)(=O)c3cccc(Cl)c3)c2O)c1F | 14000 | > 44
8 | Cc1ccc(NS(=O)(=O)c2cccc(C(F)(F)F)c2)c(O)c1CC(=O)NCc1ccc(C(=N)N)cc1.Cl | 120 | 2.8
9 | Cc1ccc(NS(=O)(=O)c2ccc(Cl)cc2F)c(O)c1CC(=O)NCc1ccc(C(=N)N)cc1.Cl | 82 | 0.68
10 | Cc1ccc(S(=O)(=O)Nc2ccc(C)c(CC(=O)NCc3nccc(C)c3F)c2O)cc1Cl | 20000 | > 44
11 | Cc1ccc(NCS(=O)(=O)c2ccccc2)c(O)c1CC(=O)NCc1ccc(C(=N)N)cc1.Cl | 190 | 3.1
12 | Cc1ccccc1S(=O)(=O)Nc1ccc(C)c(CC(=O)NCc2ccc(N)nc2C)c1O.Cl | 260 | > 44
13 | Cc1ccc(S(=O)(=O)Nc2ccc(C)c(CC(=O)NCc3ccc(N)nc3C)c2O)cc1F.Cl | 590 | > 44
14 | Cc1ccc(NCC(=O)c2ccccc2)c(O)c1CC(=O)NCc1ccc(C(=N)N)cc1.Cl | 4700 | 4
15 | Cc1ccc(NCS(=O)(=O)c2ccccc2)c(O)c1CC(=O)NCc1ccc(N)nc1C.Cl | 570 | > 44
16 | Cc1ccc(NS(=O)(=O)c2ccc(Cl)cc2)c(O)c1CC(=O)NCc1ccc(C(=N)N)cc1.Cl | 130 | 0.94
17 | Cc1ccc(NS(=O)(=O)c2cc(Cl)ccc2Cl)c(O)c1CC(=O)NCc1ccnc(N)c1.Cl | 1000 | > 44
18 | COc1cccc(S(=O)(=O)Nc2ccc(C)c(CC(=O)NCc3ccc(C(=N)N)cc3)c2O)c1.Cl | 16 | 0.28
19 | Cc1ccnc(CNC(=O)Cc2c(C)ccc(NCS(=O)(=O)c3cccc(Cl)c3)c2O)c1F | 15000 | > 44
20 | COc1ccc(S(=O)(=O)Nc2ccc(C)c(CC(=O)NCc3ccc(C(=N)N)cc3)c2O)cc1.Cl | 50 | 0.91
21 | Cc1ccc(S(=O)(=O)Nc2ccc(C)c(CC(=O)NCc3ccc(C(=N)N)cc3)c2O)cc1.Cl | 250 | 1.1
22 | COc1ccc(S(=O)(=O)Nc2ccc(C)c(CC(=O)NCc3ccc(C(=N)N)cc3)c2O)cc1OC.Cl | 39 | 0.34
